# Patent US10118954B2, “Apelin analogues” (University of Ulster, priority 2014, dated 2018)
# Tests used:
# [1] = test system: male NIH Swiss mice; test: Acute effects of apelin analogues on voluntary food intake; assay type: in vivo; details: 100 nmol/kg i.p., FIG. 37
# Procedure: Saline and peptide analogues were administered by intraperitoneal injection and cumulative food intake was monitored at 30, 60, 90 and 120 min after feeding.
# Mice were habituated to a daily feeding regime of 3 h/day by progressively reducing the daily feeding period over 3 weeks. This was performed to ensure mice consumed entire daily food intake within 3 h, thereby allowing “peptide” effects to be measured over the known eating period of mice. On days 1 to 7, mice were supplied with food from 10:00 h to 20:00 h, on days 8 to 14, food was presented from 10:00 h to 19:00 h and on days 15 to 21, food was restricted to the 3 h interval from 10:00 h to 13:00 h. This regime was continued throughout the experimental period.
# Mice that were habituated to a 3 h daily feeding regime were administered with an i.p. injection of saline (0.9% w/v NaCl) or apelin peptide (1-100 nmol/kg bw) at 10:00 h (n=8). Immediately following injection, food was initially weighed and then presented to the mice and subsequently weighed at 30 min intervals up to 180 min.
# [2] = test system: NIH Swiss mice fed a high-fat diet for 150 days; test: Acute and delayed i.p. glucose tolerance test, blood glucose and plasma insulin; assay type: in vivo; details: acute, Table 4
# Outline: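 Diet-induced obese-diabetic mice (high-fat diet 150 days, 18 h fasted) received i.p. glucose (18 mmol/kg) alone or with apelin analogues (25 nmol/kg), or analogues given 2, 8 or 16 h beforehand. Tail blood glucose and plasma insulin sampled at 0, 15, 30, 60, 105 min; n=8, mean±SEM.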
# [3] = Degradation of apelin peptides by plasma from fasted normal NIH Swiss mice (rp-HPLC, MALDI-TOF MS); assay type: in vitro ADME
# Outline: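 Apelin peptides were incubated with plasma from fasted normal NIH Swiss mice for 4 h, and the reaction was stopped with TFA. Products were separated by C-8 rp-HPLC with detection at 214 nm. Peak fractions were identified by MALDI-TOF MS, giving fragment molecular weights and retention times.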
# [4] = peptide 25 nmol/kg i.p. with glucose 18 mmol/kg
# [5] = plasma incubation 4 h, fragment identified by MALDI-TOF MS
smiles,measurement,setting,value
"CSCC[C@H](NC(=O)[C@@H]1CCCN1C(=O)CNC(=O)[C@H](CCCCN)NC(=O)[C@H](Cc1cnc[nH]1)NC(=O)[C@H](CO)NC(=O)[C@H](CC(C)C)NC(=O)[C@H](CCCNC(=N)N)NC(=O)[C@@H]1CCCN1C(=O)[C@H](CCCNC(=N)N)NC(=O)[C@@H](N)CCC(N)=O)C(=O)N1CCC[C@H]1C(=O)N[C@@H](Cc1ccccc1)C(=O)O [Apelin-13, reference compound]",Reduction of food intake,[1]; at 90 min,16.7%
same,Persistence of the food intake reduction,[1]; over 3 h,not sustainable over 3 h
same,Rank order on basis of anti-hyperglycaemic efficacy,[2],6
same,Blood glucose as percent of glucose-alone control (lower = stronger glucose lowering),[2]; [4],92% ^
same,"Insulin secretion, where glucose alone = 100%",[2]; [4],111% ^
same,"remaining at 4 h, 263 µg/mL","[3]; NIH Swiss, pH 7.4, mouse plasma, 37° C., 4 h, mean ± SEM, 2 experiments, read-out: % intact peptide (4 h)",25.4 ± 1.5%
same,half-life at 263 µg/mL,"[3]; NIH Swiss, pH 7.4, mouse plasma, estimated by linear regression of % intact peptide against time, read-out: Half-life (t1/2) (converted)",2.1 h
same,Rank order of stability,"[3]; mouse plasma, 1 = most stable",14
same,"Degradation fragment, Peak 1",[3]; [5],Apelin-13 (1-11)
same,"Degradation fragment, Peak 2",[3]; [5],Apelin-13 (1-12)
